We go through 14 molecules from patent US8039514B2, “Sulfonamide compounds and use thereof” (Asahi Kasei Pharma Corporation, priority 2008, dated 2011).

For data set [1], the system named is PTH concentration in blood. It is filed as in vivo. The settings on record: for death or abnormality of the rat administered with the compounds: 0.1-100 mg/kg intravenous or oral; for PTH concentration in blood after 30 minutes / dose dependence of PTH concentration increase / PTH concentration in blood 5 minutes after the intravenous administration: rat, 0.1-100 mg/kg; for PTH concentration in blood 5 minutes after the intravenous administration: Rat Intact PTH ELISA, versus normal value. The protocol: Compounds of Exp. 3-49, Exp. 3-57, Exp. 3-93, Exp. 3-95, Exp. 3-102, Exp. 3-106, Exp. 8-5, Exp. 10-1 and Exp. 10-25 were chosen as a test compound. Each of them was either dissolved or suspended in physiological saline or distilled water containing 1-20% DMSO, 5% CremophorEL, 10-40% PEG300, etc. and administered intravenously (tail vein or femoral vein) or orally administered to a 7 week to 10 week old male SD-IGS rat (Nippon Charles-River) with dosage of 0.1-100 mg/kg. After that, blood sample was taken from subclavian vein over the time and serum was separated. Concentration of PTH in blood was measured using Rat Intact PTH ELISA Kit (manufactured by Immutopics) to evaluate an activity of increasing PTH concentration in blood. […] Therefore, the safety of these compounds was confirmed again.
On the technique in general: In an ELISA, binding on a coated surface is turned into a signal by an enzyme label.

In data set [2] the target is T1, human calcium-sensing receptor (CaSR) (Homo sapiens, UniProt P41180).
T1 construct: expressed in transfected cells
T1 sequence (P41180 20-1078): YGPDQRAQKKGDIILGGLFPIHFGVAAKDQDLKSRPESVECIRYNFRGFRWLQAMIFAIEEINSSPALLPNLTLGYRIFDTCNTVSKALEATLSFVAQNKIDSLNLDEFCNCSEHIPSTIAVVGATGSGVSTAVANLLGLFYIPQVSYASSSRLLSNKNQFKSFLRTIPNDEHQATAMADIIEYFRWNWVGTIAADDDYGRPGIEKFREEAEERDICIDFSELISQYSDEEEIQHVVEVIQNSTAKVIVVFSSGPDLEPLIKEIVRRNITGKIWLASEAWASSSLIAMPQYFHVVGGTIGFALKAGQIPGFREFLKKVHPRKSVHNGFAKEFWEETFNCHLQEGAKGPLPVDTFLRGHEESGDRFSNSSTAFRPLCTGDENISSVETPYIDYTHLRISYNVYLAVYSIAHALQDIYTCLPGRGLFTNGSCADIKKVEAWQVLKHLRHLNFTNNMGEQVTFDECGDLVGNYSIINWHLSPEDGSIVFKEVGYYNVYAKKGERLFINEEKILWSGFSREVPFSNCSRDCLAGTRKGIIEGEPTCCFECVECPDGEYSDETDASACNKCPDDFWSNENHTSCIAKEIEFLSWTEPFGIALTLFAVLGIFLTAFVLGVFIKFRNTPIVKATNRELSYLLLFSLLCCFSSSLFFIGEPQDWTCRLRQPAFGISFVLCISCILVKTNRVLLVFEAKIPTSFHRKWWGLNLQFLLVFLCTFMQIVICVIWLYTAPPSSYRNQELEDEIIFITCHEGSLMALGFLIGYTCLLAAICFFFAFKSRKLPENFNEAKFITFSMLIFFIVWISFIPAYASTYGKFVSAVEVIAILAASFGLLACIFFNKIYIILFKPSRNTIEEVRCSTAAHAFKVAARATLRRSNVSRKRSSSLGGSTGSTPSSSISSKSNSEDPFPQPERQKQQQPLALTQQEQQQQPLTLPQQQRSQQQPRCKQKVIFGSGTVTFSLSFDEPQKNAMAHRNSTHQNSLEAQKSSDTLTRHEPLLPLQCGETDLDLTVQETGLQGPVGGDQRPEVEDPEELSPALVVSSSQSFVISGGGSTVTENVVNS
As to the kind of experiment: intracellular Ca assay, CaSR antagonist activity in HEK293/hCaSR cells. The format is cell-based. The settings on record: Fura2-AM, inhibition of response to calcium chloride ligand solution, read-out: IC50 values according to the intracellular Ca assay (CaSR antagonist activity). The essentials: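 HEK293/hCaSR cells were loaded with Fura2-AM and pre-incubated with compound for 160 s at 37° C in HEPES buffer (pH 7.4, 0.8 mM CaCl2), then challenged with calcium ligand solution. Read-out was the peak 340/380 nm fluorescence ratio; inhibition is relative to no-compound (0%) and no-calcium-ligand (100%) controls.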

A word on the IC50: it is the concentration that inhibits the measured activity by half. As to `CN(C[C@H](O)CNC(C)(C)CC1Cc2ccccc2C1)S(=O)(=O)c1cccc(-c2cccc(C(=O)O)c2)c1` [Exp. 3-49, (R)-3′-(N-(3-(1-(2,3-dihydro-1H-inden-2-yl)-2-methylpropan-2-ylamino)-2-hydroxypropyl)-N-methylsulfamoyl)biphenyl-3-carboxylic acid], in data set [1], the “death or abnormality of the rat administered with the compounds” value (“death or abnormality” below) is reported as “no death or abnormality was found”, the “PTH concentration in blood after 30 minutes” value is recorded as “returned to a normal value”, the “dose dependence of PTH concentration increase” value is reported as “dependent on the administration amount of the compound” and the “PTH concentration in blood 5 minutes after the intravenous administration” value (from here on “PTH concentration in blood 5 minutes”) is given as “increased at least twice the normal value”. In addition, the IC50 in data set [2] is at most 300 nM.

Take `CN(C[C@H](O)CNC(C)(C)Cc1ccc(Cl)c(F)c1)S(=O)(=O)c1cc(-c2ccc(CCC(=O)O)cc2)cc(C(F)(F)F)c1` [Exp. 3-95, (R)-3-(3′-(N-(3-(1-(4-chloro-3-fluorophenyl)-2-methylpropan-2-ylamino)-2-hydroxypropyl)-N-methylsulfamoyl)-5′-(trifluoromethyl)biphenyl-4-yl)propionic acid]: in data set [1], the “death or abnormality” value is given as “no death or abnormality was found”, the “PTH concentration in blood after 30 minutes” value was “returned to a normal value”, the “dose dependence of PTH concentration increase” value is listed as “dependent on the administration amount of the compound” and the “PTH concentration in blood 5 minutes” value was “increased at least twice the normal value”.

For the molecule `CCc1cc(-c2ccc(CCC(=O)O)cc2)ccc1S(=O)(=O)N(C)C[C@H](O)CNC(C)(C)CC1Cc2ccccc2C1` [Exp. 3-102, (R)-3-(4′-(N-(3-(1-(2,3-dihydro-1H-inden-2-yl)-2-methylpropan-2-ylamino)-2-hydroxypropyl)-N-methylsulfamoyl)-3′-ethylbiphenyl-4-yl)propionic acid], in data set [1], the “death or abnormality” value was “no death or abnormality was found”, the “PTH concentration in blood after 30 minutes” value is “returned to a normal value”, the “dose dependence of PTH concentration increase” value is listed as “dependent on the administration amount of the compound” and the “PTH concentration in blood 5 minutes” value is given as “increased at least twice the normal value”.

Take `CCc1cc(-c2ccc(CCC(=O)O)cc2)ccc1S(=O)(=O)N(C)C[C@H](O)CNC(C)(C)CCCc1cccc(F)c1` [Exp. 9-90, (R)-3-(3′-ethyl-4′-(N-(3-(5-(3-fluorophenyl)-2-methylpentan-2-ylamino)-2-hydroxypropyl)-N-methylsulfamoyl)biphenyl-4-yl)propionic acid]: the IC50 in data set [2] was at most 300 nM.

Take `CCc1cc(-c2ccc(CCC(=O)O)cc2)ccc1S(=O)(=O)N(C)C[C@H](O)CNC(C)(C)CCCc1cccs1` [Exp. 9-92, (R)-3-(3′-ethyl-4′-(N-(2-hydroxy-3-(2-methyl-5-(thiophen-2-yl)pentan-2-ylamino)propyl)-N-methylsulfamoyl)biphenyl-4-yl)propionic acid]: the IC50 in data set [2] is at most 300 nM.

Turning to `CN(C[C@H](O)CNC(C)(C)CC1Cc2ccccc2C1)S(=O)(=O)c1ccc(-c2cccc(CCC(=O)O)n2)c(Cl)c1` [Exp. 9-161, (R)-3-(6-(2-chloro-4-(N-(3-(1-(2,3-dihydro-1H-inden-2-yl)-2-methylpropan-2-ylamino)-2-hydroxypropyl)-N-methylsulfamoyl)phenyl)pyridin-2-yl)propionic acid], in data set [2], the half-inhibitory concentration (IC50) is at most 300 nM.

With `CN(C[C@H](O)CNC(C)(C)CCCc1ccccc1)S(=O)(=O)c1cc(F)cc(CCC(=O)O)c1Cl` [Exp. 9-173, (R)-3-(2-chloro-5-fluoro-3-(N-(2-hydroxy-3-(2-methyl-5-phenylpentan-2-ylamino)propyl)-N-methylsulfamoyl)phenyl)propionic acid], in data set [2], the IC50 was at most 300 nM.

On to `CN(C[C@H](O)CNC(C)(C)CCCc1ccccc1)S(=O)(=O)c1cc(OCC(=O)O)cc(C(F)(F)F)c1` [Exp. 9-179, (R)-2-(3-(N-(2-hydroxy-3-(2-methyl-5-phenylpentan-2-ylamino)propyl)-N-methylsulfamoyl)-5-(trifluoromethyl)phenyloxy)acetic acid], for which the IC50 in data set [2] was at most 300 nM.

As to `CN(C[C@H](O)CNC(C)(C)CCCc1ccccc1)S(=O)(=O)c1cc(NCC(=O)O)cc(C(F)(F)F)c1` [Exp. 9-180, (R)-2-(3-(N-(2-hydroxy-3-(2-methyl-5-phenylpentan-2-ylamino)propyl)-N-methylsulfamoyl)-5-(trifluoromethyl)phenylamino)acetic acid], in data set [2], the IC50 was at most 300 nM.

As to `CN(C[C@H](O)CNC(C)(C)CC1Cc2ccccc2C1)S(=O)(=O)c1cc(CCC(=O)O)cc(C(F)(F)F)c1` [Exp. 10-1, (R)-3-(3-(N-(3-(1-(2,3-dihydro-1H-inden-2-yl)-2-methylpropan-2-ylamino)-2-hydroxypropyl)-N-methylsulfamoyl)-5-(trifluoromethyl)phenyl)propionic acid], in data set [1], the “death or abnormality” value is reported as “no death or abnormality was found”, the “PTH concentration in blood after 30 minutes” value is “returned to a normal value”, the “dose dependence of PTH concentration increase” value is reported as “dependent on the administration amount of the compound” and the “PTH concentration in blood 5 minutes” value was “increased at least twice the normal value”.

As for `CN(C[C@H](O)CNC(C)(C)CC1Cc2ccccc2C1)S(=O)(=O)c1ccc(CCCCCC(=O)O)c(C(F)(F)F)c1` [Exp. 10-14, (R)-6-(4-(N-(3-(1-(2,3-dihydro-1H-inden-2-yl)-2-methylpropan-2-ylamino)-2-hydroxypropyl)-N-methylsulfamoyl)-2-(trifluoromethyl)phenyl)hexanoic acid], the 50% inhibitory concentration (IC50) in data set [2] was at most 300 nM.

For `CN(C[C@H](O)CNC(C)(C)CC1Cc2ccccc2C1)S(=O)(=O)c1cc(CCCC(=O)O)cc(C(F)(F)F)c1` [Exp. 10-25, (R)-4-(3-(N-(3-(1-(2,3-dihydro-1H-inden-2-yl)-2-methylpropan-2-ylamino)-2-hydroxypropyl)-N-methylsulfamoyl)-5-(trifluoromethyl)phenyl)butanoic acid], in data set [1], the “death or abnormality” value is “no death or abnormality was found”, the “PTH concentration in blood after 30 minutes” value was “returned to a normal value”, the “dose dependence of PTH concentration increase” value is “dependent on the administration amount of the compound” and the “PTH concentration in blood 5 minutes” value is “increased at least twice the normal value”.

Turning to `CN(CC(O)CNC(C)(C)CC1Cc2ccccc2C1)S(=O)(=O)c1cc(C=CC(=O)O)cc(C(F)(F)F)c1` (stereo not drawn) [Exp. 11-1, 3-(3-(N-(3-(1-(2,3-dihydro-1H-inden-2-yl)-2-methylpropan-2-ylamino)-2-hydroxypropyl)-N-methylsulfamoyl)-5-(trifluoromethyl)phenyl)acrylic acid], in data set [2], the IC50 was at most 300 nM.

Regarding `CC(C)(CC1Cc2ccccc2C1)NC[C@@H](O)CNS(=O)(=O)c1cccc(-c2cccc(C(=O)O)c2)c1` [Exp. 14-2, (R)-3′-(N-(3-(1-(2,3-dihydro-1H-inden-2-yl)-2-methylpropan-2-ylamino)-2-hydroxypropyl)sulfamoyl)biphenyl-3-carboxylic acid], the IC50 in data set [2] is at most 300 nM.
